The text below walks through data of patent US10759783B2, “Biaryl inhibitors of Bruton'S tyrosine kinase” (BIOGEN MA INC., priority 2013, dated 2020).

For assay [1], the target named is BTK (phospho-BTK) in human whole blood (Homo sapiens, UniProt Q06187). Briefly: In vitro PD assay in human whole blood (pBTK assay).
Assay [2] addresses T1, BTK enzyme (Homo sapiens, UniProt Q06187).
T1 construct: purchased Upstate 14-552
Kind of assay: In vitro BTK kinase assay: BTK-POLYGAT-LS assay. Format: biochemical. The note with it: ATP 10 μM, read-out: IC50 (10uMATP). The procedure, abridged: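 Human BTK activity was measured with final 10 μM ATP and 100 nM polyGAT substrate in pH 7.5 Tris buffer with 10 mM MgCl2, DTT, Triton X-100 and casein.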

T1 sequence (Q06187 whole entry): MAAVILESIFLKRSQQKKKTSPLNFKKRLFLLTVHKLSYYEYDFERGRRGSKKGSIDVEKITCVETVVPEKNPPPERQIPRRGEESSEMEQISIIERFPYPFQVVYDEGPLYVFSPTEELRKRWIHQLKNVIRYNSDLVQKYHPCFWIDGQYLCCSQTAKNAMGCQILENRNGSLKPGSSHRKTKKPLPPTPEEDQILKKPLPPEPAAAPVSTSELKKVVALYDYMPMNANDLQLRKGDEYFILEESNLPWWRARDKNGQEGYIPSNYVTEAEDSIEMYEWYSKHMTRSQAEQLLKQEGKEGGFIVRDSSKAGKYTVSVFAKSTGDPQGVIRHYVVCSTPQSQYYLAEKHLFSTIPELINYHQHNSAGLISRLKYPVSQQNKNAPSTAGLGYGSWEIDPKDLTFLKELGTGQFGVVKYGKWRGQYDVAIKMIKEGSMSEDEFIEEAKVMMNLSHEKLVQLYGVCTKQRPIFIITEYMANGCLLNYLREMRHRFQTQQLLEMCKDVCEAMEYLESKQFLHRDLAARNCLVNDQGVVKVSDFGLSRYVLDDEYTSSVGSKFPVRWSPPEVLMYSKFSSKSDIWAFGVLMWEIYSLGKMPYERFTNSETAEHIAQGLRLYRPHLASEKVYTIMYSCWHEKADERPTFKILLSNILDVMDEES
BTK (phospho-BTK) in human whole blood, sequence (Q06187 whole entry): as above

As to `Cc1cc(-c2ccnc(Nc3cnn(C)c3)n2)ccc1CNC(=O)c1cnc(C(C)(C)C)s1` [Example I-1, 2-(tert-butyl)-N-(2-methyl-4-(2-((1-methyl-1H-pyrazol-4-yl)amino)pyrimidin-4-yl)benzyl)thiazole-5-carboxamide], the IC50 – broadly, the midpoint of a concentration-inhibition curve – in assay [1] was less than 500 nM; in assay [2], less than 10 nM.

For `Cc1cc(-c2ccnc(Nc3cc4n(n3)CCNC4)n2)ccc1CNC(=O)c1cnc(C(C)(C)C)s1` [Example I-54, 2-(tert-butyl)-N-(2-methyl-4-(2-((4,5,6,7-tetrahydropyrazolo[1,5-a]pyrazin-2-yl)amino)pyrimidin-4-yl)benzyl)thiazole-5-carboxamide], the IC50 in assay [1] is 500 to 1500 nM; in assay [2] it was less than 10 nM.

In the case of `CC(C)n1cc(Nc2nccc(-c3ccc4c(c3)CCCCC4NC(=O)N3CC(OC(C)(C)C)C3)n2)cn1` (centres unmarked) [Example I-174, 3-(tert-butoxy)-N-(2-(2-((1-isopropyl-1H-pyrazol-4-yl)amino)pyrimidin-4-yl)-6,7,8,9-tetrahydro-5H-benzo[7]annulen-5-yl)azetidine-1-carboxamide], the IC50 in assay [1] was less than 500 nM; in assay [2], less than 10 nM.

As for `CN1CCC(n2cc(Nc3nccc(-c4ccc5c(c4)CCCCC5NC(=O)N4CC(OC(C)(C)C)C4)n3)cn2)CC1` (centres unmarked) [Example I-180, 3-(tert-butoxy)-N-(2-(2-((1-(1-methylpiperidin-4-yl)-1H-pyrazol-4-yl)amino)pyrimidin-4-yl)-6,7,8,9-tetrahydro-5H-benzo[7]annulen-5-yl)azetidine-1-carboxamide], the results for the IC50 in assay [1] and in assay [2] were less than 500 nM and less than 10 nM, respectively.

For the compound `CC(C)OC1CN(C(=O)N[C@@H]2CCCCc3cc(-c4ccnc(Nc5cnn(CCO)c5)n4)ccc32)C1` [Example I-169, (R)—N-(2-(2-((1-(2-hydroxyethyl)-1H-pyrazol-4-yl)amino)pyrimidin-4-yl)-6,7,8,9-tetrahydro-5H-benzo[7]annulen-5-yl)-3-isopropoxyazetidine-1-carboxamide], the values for the IC50 in assay [1] and in assay [2] were less than 500 nM and less than 10 nM, respectively.

Regarding `Cn1cc(Nc2nccc(-c3ccc4c(c3)CCCC[C@H]4NC(=O)N3CC(OC(C)(C)C)C3)n2)cn1` [Example I-164, (R)-3-(tert-butoxy)-N-(2-(2-((1-methyl-1H-pyrazol-4-yl)amino)pyrimidin-4-yl)-6,7,8,9-tetrahydro-5H-benzo[7]annulen-5-yl)azetidine-1-carboxamide], the IC50 in assay [1] is less than 500 nM; in assay [2], less than 10 nM.

Regarding `COCCn1cc(Nc2nccc(-c3ccc(CNC(=O)N4CCC(C(C)C)C4)c(C(F)(F)F)c3)n2)cn1` (centres unmarked) [Example I-317, 3-isopropyl-N-[[4-[2-[[1-(2-methoxyethyl)pyrazol-4-yl]amino]pyrimidin-4-yl]-2-(trifluoromethyl)phenyl]methyl]pyrrolidine-1-carboxamide], the IC50 in assay [1] was less than 500 nM; in assay [2] it was less than 10 nM.

In the case of `Cc1cc(-c2ccnc(Nc3cnn4c3CCC4)n2)ccc1CNC(=O)c1cnc(C(C)(C)C)s1` [Example I-315, 2-tert-butyl-N-[[4-[2-(5,6-dihydro-4H-pyrrolo[1,2-b]pyrazol-3-ylamino)pyrimidin-4-yl]-2-methyl-phenyl]methyl]thiazole-5-carboxamide], the results for the IC50 in assay [1] and in assay [2] were less than 500 nM and less than 10 nM, respectively.

On to `Cn1cc(Nc2nccc(-c3ccc(CNC(=O)c4cnn(C(C)(C)C)c4)c(CCO)c3)n2)cn1` [Example I-191, 1-(tert-butyl)-N-(2-(2-hydroxyethyl)-4-(2-((1-methyl-1H-pyrazol-4-yl)amino)pyrimidin-4-yl)benzyl)-1H-pyrazole-4-carboxamide], for which the IC50 in assay [1] is less than 500 nM; in assay [2], less than 10 nM.

Take `Cn1cc(Nc2nccc(-c3ccc(CNC(=O)c4cc5c(s4)CCOC5)c(C(F)(F)F)c3)n2)cn1` [Example I-115, N-(4-(2-((1-methyl-1H-pyrazol-4-yl)amino)pyrimidin-4-yl)-2-(trifluoromethyl)benzyl)-6,7-dihydro-4H-thieno[3,2-c]pyran-2-carboxamide]: the IC50 is 500 to 1500 nM in assay [1] and less than 10 nM in assay [2].

On to `COCCc1cc(-c2ccnc(Nc3cnn4c3CCC4)n2)ccc1CNC(=O)N1CC(OC(C)(C)C)C1` [Example I-323, 3-tert-butoxy-N-[[4-[2-(5,6-dihydro-4H-pyrrolo[1,2-b]pyrazol-3-ylamino)pyrimidin-4-yl]-2-(2-methoxyethyl)phenyl]methyl]azetidine-1-carboxamide], for which the IC50 is less than 500 nM in assay [1] and less than 10 nM in assay [2].

On to `CCn1cc(Nc2nccc(-c3ccc(CNC(=O)N4CC(OC(C)(C)C)C4)c(C)c3)n2)cn1` [Example I-216, 3-(tert-butoxy)-N-(4-(2-((1-ethyl-1H-pyrazol-4-yl)amino)pyrimidin-4-yl)-2-methylbenzyl)azetidine-1-carboxamide], for which the half-inhibitory concentration (IC50) in assay [1] is less than 500 nM; in assay [2], less than 10 nM.

`CN1CCn2nc(Nc3cc(-c4ccc(CNC(=O)c5cnn(C(C)(C)C)c5)c(Cl)c4)ncn3)cc2C1` [Example I-240, 1-(tert-butyl)-N-(2-chloro-4-(6-((5-methyl-4,5,6,7-tetrahydropyrazolo[1,5-a]-pyrazin-2-yl)amino)pyrimidin-4-yl)benzyl)-1H-pyrazole-4-carboxamide]: the IC50 in assay [1] was less than 500 nM; in assay [2], less than 10 nM.

Regarding `Cc1cc(-c2ccnc(Nc3cnn(CCO)c3)n2)ccc1CNC(=O)c1cnn(C(C)(C)C)c1` [Example I-250, 1-tert-butyl-N-[[4-[2-[[1-(2-hydroxyethyl)pyrazol-4-yl]amino]pyrimidin-4-yl]-2-methyl-phenyl]methyl]pyrazole-4-carboxamide], the IC50 is less than 500 nM in assay [1] and less than 10 nM in assay [2].

In the case of `Cc1cc(-c2cc(Nc3cc4n(n3)CCN(C)C4)ncn2)ccc1CNC(=O)N1CC(OC(C)(C)C)C1` [Example I-256, 3-tert-butoxy-N-[[2-methyl-4-[6-[(5-methyl-6,7-dihydro-4H-pyrazolo[1,5-a]pyrazin-2-yl)amino]pyrimidin-4-yl]phenyl]methyl]azetidine-1-carboxamide], the values for the IC50 in assay [1] and in assay [2] were less than 500 nM and less than 10 nM, respectively.

As for `CCn1cc(Nc2nccc(-c3ccc4c(c3)CCCCC4NC(=O)N3CC(OC(C)C)C3)n2)cn1` (centres unmarked) [Example I-166, N-(2-(2-((1-ethyl-1H-pyrazol-4-yl)amino)pyrimidin-4-yl)-6,7,8,9-tetrahydro-5H-benzo[7]annulen-5-yl)-3-isopropoxyazetidine-1-carboxamide], the values for the IC50 in assay [1] and in assay [2] were less than 500 nM and less than 10 nM, respectively.

For `CC(C)OC1CN(C(=O)NC2CNCCc3cc(-c4ccnc(Nc5cnn(C)c5)n4)ccc32)C1` (centres unmarked) [Example I-352, 3-isopropoxy-N-[7-[2-[(1-methylpyrazol-4-yl)amino]pyrimidin-4-yl]-2,3,4,5-tetrahydro-1H-3-benzazepin-1-yl]azetidine-1-carboxamide], the IC50 in assay [1] was less than 500 nM; in assay [2], 10 to 99 nM.

Consider `CCn1cc(Nc2nccc(-c3ccc(CNC(=O)N4CC(OC(C)(C)C)C4)c(C(F)(F)F)c3)n2)cn1` [Example I-203, 3-(tert-butoxy)-N-(4-(2-((1-ethyl-1H-pyrazol-4-yl)amino)pyrimidin-4-yl)-2-(trifluoromethyl)benzyl)azetidine-1-carboxamide], for which the IC50 in assay [1] was less than 500 nM; in assay [2], less than 10 nM.

Turning to `CCn1cc(Nc2nccc(-c3ccc(CNC(=O)N4CCC(C(C)(C)C)C4)c(C(F)(F)F)c3)n2)cn1` (centres unmarked) [Example I-297, 3-tert-butyl-N-[[4-[2-[(1-ethylpyrazol-4-yl)amino]pyrimidin-4-yl]-2-(trifluoromethyl)phenyl]methyl]pyrrolidine-1-carboxamide], the values for the IC50 in assay [1] and in assay [2] were less than 500 nM and less than 10 nM, respectively.

For the compound `Cc1cc(-c2ccnc(Nc3cc4n(n3)CCN(C)C4)n2)ccc1CNC(=O)c1cnc(C(C)(C)C)s1` [Example I-55, 2-(tert-butyl)-N-(2-methyl-4-(2-((5-methyl-4,5,6,7-tetrahydropyrazolo[1,5-a]pyrazin-2-yl)amino)pyrimidin-4-yl)benzyl)thiazole-5-carboxamide], the IC50 is 1500 to 10000 nM in assay [1] and less than 10 nM in assay [2].

Regarding `CN1CC(n2cc(Nc3nccc(-c4ccc(CNC(=O)c5cnn(C(C)(C)C)c5)c(C(F)(F)F)c4)n3)cn2)C1` [Example I-201, 1-(tert-butyl)-N-(4-(2-((1-(1-methylazetidin-3-yl)-1H-pyrazol-4-yl)amino)pyrimidin-4-yl)-2-(trifluoromethyl)benzyl)-1H-pyrazole-4-carboxamide], the IC50 in assay [1] is less than 500 nM; in assay [2] it was less than 10 nM.

`Cc1cc(-c2ccnc(Nc3cnn(C)c3)n2)ccc1CNC(=O)N1CCC(C(F)(F)F)CC1` [Example I-19, N-(2-methyl-4-(2-((1-methyl-1H-pyrazol-4-yl)amino)pyrimidin-4-yl)benzyl)-4-(trifluoromethyl)piperidine-1-carboxamide]: the IC50 in assay [1] is 500 to 1500 nM; in assay [2], less than 10 nM.

As to `CC(C)OC1CN(C(=O)NC2CCCCc3cc(-c4ccnc(Nc5cnn(C6CCN(C)CC6F)c5)n4)ccc32)C1` (centres unmarked) [Example I-348, N-[2-[2-[[1-(3-fluoro-1-methyl-4-piperidyl)pyrazol-4-yl]amino]pyrimidin-4-yl]-6,7,8,9-tetrahydro-5H-benzo[7]annulen-5-yl]-3-isopropoxy-azetidine-1-carboxamide], the figures for the 50% inhibitory concentration (IC50) in assay [1] and in assay [2] were less than 500 nM and less than 10 nM, respectively.

In the case of `Cc1cc(-c2ccnc(Nc3cnn(C)c3)n2)ccc1CNC(=O)c1ccn(C(C)(C)C)n1` [Example I-252, 1-tert-butyl-N-[[2-methyl-4-[2-[(1-methylpyrazol-4-yl)amino]pyrimidin-4-yl]phenyl]methyl]pyrazole-3-carboxamide], the half-maximal inhibitory concentration (IC50) in assay [1] was less than 500 nM; in assay [2], less than 10 nM.

Regarding `COCCc1cc(-c2ccnc(Nc3cnn(C)c3)n2)ccc1CNC(=O)N1CC(OC(C)(C)C)C1` [Example I-319, 3-tert-butoxy-N-[[2-(2-methoxyethyl)-4-[2-[(1-methylpyrazol-4-yl)amino]pyrimidin-4-yl]phenyl]methyl]azetidine-1-carboxamide], the IC50 in assay [1] is less than 500 nM; in assay [2], less than 10 nM.
